Source: patent publication US9758485B2, “Compounds for controlling arthropods” (priority 2013, dated 2017)

Experiments:
Musca domestica = Musca domestica test; format: in vivo; conditions: application rate 100 ppm; adult houseflies; kill after 2 days
Method in brief: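 Compound in DMSO, diluted with water, applied to a sugar-solution sponge; vessels hold 10 adult houseflies. Percent mortality scored after 2 days.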

Amblyomma hebraeum = Amblyomma hebraeum test (tick nymphs, immersion); format: in vivo; conditions: application rate 100 ppm; tick nymphs immersed for one minute; kill after 42 days
Protocol: Solvent: dimethyl sulphoxide
To produce an appropriate active ingredient formulation, 10 mg of active ingredient are mixed with 0.5 ml of dimethyl sulphoxide, and the concentrate is diluted with water to the desired concentration.
Tick nymphs (Amblyomma hebraeum) are placed into perforated plastic beakers and immersed in the desired concentration for one minute. The ticks are transferred on filter paper into a Petri dish and stored in a climate-controlled cabinet.
After 42 days, the kill in % is determined. 100% means that all of the ticks have been killed; 0% means that none of the ticks have been killed.

Ctenocephalides felis [1] = test: Ctenocephalides felis - oral test; format: in vivo; conditions: application rate 100 ppm in citrated cattle blood; adult fleas; kill after 2 days
Method in brief: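 About 20 unfed adult cat fleas fed through a parafilm membrane on citrated cattle blood containing compound, dosed from a DMSO stock. Kill in % scored after 2 days; 100% means all fleas dead.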

Lucilia cuprina = Lucilia cuprina test; format: in vivo; conditions: application rate 100 ppm; L1 larvae in minced horsemeat; kill after 2 days
Method in brief: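 About 20 L1 larvae placed on minced horsemeat treated with compound, formulated in DMSO and diluted with water to test concentration. Kill in % scored after 2 days (100% = all larvae dead, 0% = none).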

[2] = test system: Boophilus microplus Parkhurst strain, SP-resistant; test: Boophilus microplus - dip test; format: in vivo; conditions: application rate 100 ppm; dip of engorged adult female ticks; laying of fertile eggs, after 7 days
Method in brief: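 Adult engorged females of SP-resistant Parkhurst strain (8–10 per tube) fully immersed in compound diluted in water from a DMSO solution. Ticks then kept on filter discs in a climate-controlled room; efficacy scored from fertile egg laying at 7 days, with unclear eggs held about 42 days until hatch (100% = no fertile eggs).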

Rhipicephalus sanguineus = Rhipicephalus sanguineus - in vitro contact tests with adult brown dog ticks; format: in vivo
Protocol: Rhipicephalus sanguineus—In Vitro Contact Tests with Adult Brown Dog Ticks
For the coating of the test tubes, 9 mg of active ingredient are first dissolved in 1 ml of acetone p.a. and then diluted to the desired concentration with acetone p.a. 250 μl of the solution are distributed homogeneously on the inner walls and base of a 25 ml test tube by turning and rocking on an orbital shaker (rocking rotation at 30 rpm for 2 h). With 900 ppm active ingredient solution and internal surface 44.7 cm^2, given homogeneous distribution, an area-based dose of 5 μg/cm^2 is achieved.
After the solvent has evaporated off, the tubes are populated with 5-10 adult dog ticks (Rhipicephalus sanguineus), sealed with a perforated plastic lid and incubated in a horizontal position in the dark at room temperature and ambient humidity. After 48 h, efficacy is determined. To this end, the ticks are knocked to the floor of the tube and incubated on a hotplate at 45-50° C. for not more than 5 min. Ticks which remain motionless on the floor or move in such an uncoordinated manner that they are unable to deliberately avoid the heat by climbing upwards are considered to be dead or moribund.
An efficacy of 100% means that all the ticks were dead or moribund. 0% efficacy means that none of the ticks had been harmed.

Ctenocephalides felis [3] = test: Ctenocephalides felis - in vitro contact tests with adult cat fleas; format: in vivo; conditions: application rate 5 μg/cm^2 (=500 g/ha), after 48 h (dead or moribund)
Method in brief: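 Acetone solution coated on test-tube inner walls (900 ppm gives 5 μg/cm^2). After drying, 5-10 adult cat fleas added and kept horizontal at room temperature and ambient humidity. At 48 h fleas knocked down; motionless or uncoordinated ones counted dead/moribund, giving % efficacy.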

Boophilus microplus = Boophilus microplus - injection test; format: in vivo; conditions: application rate 20 μg/animal; injected into engorged adult female ticks; laying of fertile eggs, after 7 days
Method in brief: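 Compound dissolved in DMSO (10 mg per 0.5 ml, then diluted with DMSO to test concentration); 1 μl injected into the abdomen of 5 engorged adult female ticks, which are then held in a climate-controlled room. Efficacy judged after 7 days by laying of fertile eggs.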

[4] = logP determination by HPLC on a reversed-phase column (C18), EEC Directive 79/831 Annex V.A8; format: physicochemical; conditions: for logP^a): HPLC-MS method a), Table I-T3; for log P: HPLC-MS, reversed-phase column (C18)
[5] = application rate 5 μg/cm^2, after 48 h (dead or moribund)

SMILES | efficacy (Musca domestica) [%] | efficacy (Amblyomma hebraeum) [%] | efficacy (Ctenocephalides felis [1]) [%] | efficacy (Lucilia cuprina) [%] | efficacy [2] [%] | efficacy (Rhipicephalus sanguineus; [5]) [%] | efficacy (Ctenocephalides felis [3]) [%] | efficacy (Boophilus microplus) [%] | logP^a) [4] | efficacy (Rhipicephalus sanguineus; application rate 0.2 μg/cm^2, after 48 h (dead or moribund)) [%] | log P [4]
Cc1cc(C(F)(C(F)(F)F)C(F)(F)F)cc(C)c1-n1cc(-c2cnc(Cl)c(C(=O)NC3(C#N)CC3)c2)cn1 [I-T3-21] | 100 | 100 | 100 | 100 | 100 | 100 | 100 | 100 | 3.7 |  | 
O=C(NC1CC1)c1cc(-c2cnn(-c3c(Cl)cc(C(F)(C(F)(F)F)C(F)(F)F)cc3Cl)c2)cnc1Cl [I-T3-42] | 100 | 100 | 100 | 100 | 100 | 100 | 100 | 100 | 3.8 |  | 
N#CC1(NC(=O)c2cc(-c3cnn(-c4c(Cl)cc(C(F)(C(F)(F)F)C(F)(F)F)cc4Cl)c3)cnc2Cl)CC1 [I-T3-43] | 100 | 100 | 100 | 100 | 100 | 80 | 100 | 100 | 3.8 |  | 
Cc1cc(C(F)(C(F)(F)F)C(F)(F)F)cc(C(F)(F)F)c1-n1cc(-c2ccc(Cl)c(C(=O)NC3CC3)c2)cn1 [I-T3-54] | 100 | 100 | 100 | 100 | 100 | 100 | 100 | 100 | 4.4 |  | 
Cc1cc(C(F)(C(F)(F)F)C(F)(F)F)cc(C(F)(F)F)c1-n1cc(-c2ccc(Cl)c(C(=O)NC3(C#N)CC3)c2)cn1 [I-T3-55] | 100 | 100 | 100 | 100 | 100 | 100 | 100 | 100 | 4.3 |  | 
O=C(NC1CC1)c1cc(-c2cnn(-c3c(Cl)cc(C(F)(C(F)(F)F)C(F)(F)F)cc3C(F)(F)F)c2)ccc1Cl [I-T3-56] | 100 | 100 | 100 | 100 | 100 | 100 | 100 | 100 | 4.4 |  | 
O=C(NC1CC1)c1cc(-c2cnn(-c3c(F)cc(C(F)(C(F)(F)F)C(F)(F)F)cc3F)c2)ccc1Cl [I-T3-61] | 100 | 80 | 100 | 100 | 100 | 100 | 100 | 100 | 4.0 |  | 
Cc1cc(C(F)(C(F)(F)F)C(F)(F)F)cc(Cl)c1-n1cc(-c2ccc(Cl)c(C(=O)NC3CC3)c2)cn1 [I-T3-63] | 100 | 100 | 100 | 100 | 100 | 100 | 100 | 100 | 4.4 |  | 
Cc1cc(C(F)(C(F)(F)F)C(F)(F)F)cc(Cl)c1-n1cc(-c2ccc(Cl)c(C(=O)NC3(C#N)CC3)c2)cn1 [I-T3-64] | 100 | 100 | 100 | 100 | 100 |  | 100 | 100 | 4.2 | 80 | 
CCc1cc(C(F)(C(F)(F)F)C(F)(F)F)cc(Cl)c1-n1cc(-c2ccc(Cl)c(C(=O)NC3(C#N)CC3)c2)cn1 [I-T3-71] | 100 | 100 | 100 | 100 | 100 | 100 | 100 | 100 | 4.5 |  | 
CCc1cc(C(F)(C(F)(F)F)C(F)(F)F)cc(Cl)c1-n1cc(-c2ccc(Cl)c(C(=O)NC3CC3)c2)cn1 [I-T3-72] | 100 | 100 | 100 | 100 | 100 | 100 | 100 | 100 | 4.6 |  | 
CCc1cc(C(F)(F)C(F)(F)F)cc(C)c1-n1cc(-c2ccc(Cl)c(C(=O)NC3CC3)c2)cn1 [I-T3-81] | 90 | 100 | 100 | 100 | 100 | 100 | 100 | 100 | 4.3 |  | 
Cc1ncc(-c2cnn(-c3c(Cl)cc(C(F)(C(F)(F)F)C(F)(F)F)cc3Cl)c2)cc1C(=O)NC1CC1 [I-T3-91] | 100 | 100 | 100 | 100 | 100 | 100 | 100 | 100 |  |  | 3.3
Cc1ncc(-c2cnn(-c3c(Cl)cc(C(F)(C(F)(F)F)C(F)(F)F)cc3Cl)c2)cc1C(=O)NC1(C#N)CC1 [I-T3-92] | 100 | 100 | 100 | 100 | 100 | 80 | 100 | 100 |  |  | 3.4
Cc1cc(C(F)(C(F)(F)F)C(F)(F)F)cc(C)c1-n1cc(-c2cnc(C)c(C(=O)NC3CC3)c2)cn1 [I-T3-96] | 100 | 100 | 100 | 100 | 100 | 100 | 100 | 100 |  |  | 3.3
Cc1cc(C(F)(C(F)(F)F)C(F)(F)F)cc(C)c1-n1cc(-c2cnc(C)c(C(=O)NC3(C#N)CC3)c2)cn1 [I-T3-97] | 100 | 100 | 100 | 100 | 100 | 100 | 100 | 100 |  |  | 3.4
O=C(NC1CC1)c1cc(-c2cnn(-c3c(Cl)cc(C(F)(F)F)cc3Cl)c2)cnc1Cl [I-T3-98] | 90 | 100 | 100 | 100 | 100 | 100 | 100 | 100 |  |  | 3.1
Cc1cc(C(F)(C(F)(F)F)C(F)(F)F)cc(C(F)(F)F)c1-n1cc(-c2cnc(Cl)c(C(=O)NC3CC3)c2)cn1 [I-T3-106] | 100 | 100 | 100 | 100 | 100 | 100 | 100 | 100 |  |  | 4.0
